Read-outs that look alike come from different tables or passages of the source.
Legend:
[1] = test system: human PBMC T cells; assay: cells; assay type: cell-based; conditions: 72 h, read-out: T-cells (IC50)
[2] = target: IMPDH human type II (Homo sapiens, UniProt P12268); assay: biochemical
[3] = test system: human PBMC B cells; assay: cells; assay type: cell-based; conditions: read-out: B-cells (IC50)

COc1cc(NC(=O)Nc2cccc(CNC(=O)OC[C@H](CC#N)NC(=O)OC(C)(C)C)c2)ccc1-c1cnco1 [Compound 10]
IC50 [1]: 100 to 1000 nM

CCC(CCC#N)OC(=O)NCc1cccc(NC(=O)Nc2ccc(-c3cnco3)c(OC)c2)c1 (stereo not shown) [Compound 45]
Ki [2]: < 10 nM

COc1cc(NC(=O)Nc2cccc(CNC(=O)OC3CCC[C@H]3N3CCOCC3)c2)ccc1-c1cnco1 (stereo partly shown) [Compound 80]
IC50 ([3]; Homo sapiens, 72 h): < 100 nM

CC[C@@H](CC#N)OC(=O)NCc1cccc(NC(=O)Nc2ccc(-c3cnco3)c(OC)c2)c1 [Compound 88]
Ki [2]: < 10 nM

CC[C@H](CCC#N)OC(=O)NCc1cccc(NC(=O)Nc2ccc(-c3cnco3)c(OC)c2)c1 [Compound 89]
IC50 ([3]; Homo sapiens, 72 h): < 100 nM | IC50 [1]: < 100 nM

CC[C@H](COC(=O)CN)OC(=O)NCc1cccc(NC(=O)Nc2ccc(-c3cnco3)c(OC)c2)c1 [Compound 95]
Ki ([2]; IMPDH human type II, 200 μM IMP, 200 μM NAD, 37° C.): < 10 nM

COc1cc(NC(=O)Nc2cccc(CNC(=O)O[C@H](CN3CCCC3)c3ccccc3)c2)ccc1-c1cnco1 [Compound 98]
IC50 ([3]; Homo sapiens, 72 h): < 100 nM | IC50 [1]: < 100 nM

C=CC(COC(C)=O)OC(=O)NCc1cccc(NC(=O)Nc2ccc(-c3cnco3)c(OC)c2)c1 (stereo not shown) [Compound 133]
Ki [2]: 10 to 50 nM

CCN(C)CCC(OC(=O)NCc1cccc(NC(=O)Nc2ccc(-c3cnco3)c(OC)c2)c1)c1ccccc1 (stereo not shown) [Compound 139]
IC50 ([3]; Homo sapiens, 72 h): 100 to 1000 nM | IC50 [1]: 100 to 1000 nM

COc1cc(NC(=O)Nc2cccc([C@H](C)NC(=O)O[C@H]3CCOC3)c2)ccc1C#N [Compound 185]
IC50 [3]: < 100 nM
